Assay results: patent US8680012B2, “4-phenyl-pyrane-3,5-diones,4-phenyl-thiopyrane-3,6-diones and cyclohexanetriones as novel herbicides” (Syngenta Crop Protection LLC, priority 2006, dated 2014)

Tests used:
Assay type in all cases: in vivo
Avena fatua (AVEFA) [1] = test: Example A pre-emergence herbicidal activity, glasshouse pot test; conditions: 480 h, evaluated 20 days after spraying, read-out: Pre-emergence activity AVEFA (100=total damage to plant; 0=no damage to plant); for pest or weed control at 250 g/ha: rate 250 g/ha
Protocol: (§1) Seeds of a variety of test species were sown in standard soil in pots. After cultivation for one day (pre-emergence) or after 10 days cultivation (post-emergence) under controlled conditions in a glasshouse, the plants were sprayed with an aqueous spray solution derived from the formulation of the technical active ingredient in 0.6 ml acetone and 45 ml formulation solution containing 10.6% Emulsogen EL (Registry number 61791-12-6), 42.2% N-methylpyrrolidone, 42.2% dipropylene glycol monomethyl ether (Registry number 34590-94-8) and 0.2% X-77 (Registry number 11097-66-8). The test plants were then grown in a greenhouse under optimum conditions until, 15 days later for post-emergence and 20 days for pre-emergence, the test was evaluated (100=total damage to plant; 0=no damage to plant).
(§2) Alopecurus myosuroides (ALOMY), Avena fatua (AVEFA), Lolium perenne (LOLPE), Setaria faberi (SETFA), Digitaria sanguinalis (DIGSA), Echinochloa crus-galli (ECHCG)

Setaria faberi (SETFA) [2] = test: as above; conditions: 480 h, evaluated 20 days after spraying, read-out: Pre-emergence activity SETFA (100=total damage to plant; 0=no damage to plant); for pest or weed control at 250 g/ha: rate 250 g/ha
Protocol: as §1, §2

[3] = test system: Echinochloa crus-galli (ECHCG); test: as above; conditions: 480 h, evaluated 20 days after spraying, read-out: Pre-emergence activity ECHCG (100=total damage to plant; 0=no damage to plant); for pest or weed control at 250 g/ha: rate 250 g/ha
Protocol: as §1, §2

Lolium perenne (LOLPE) [4] = test: as above; conditions: 480 h, evaluated 20 days after spraying, read-out: Pre-emergence activity LOLPE (100=total damage to plant; 0=no damage to plant); for pest or weed control at 250 g/ha: rate 250 g/ha
Protocol: as §1, §2

[5] = test system: Alopecurus myosuroides (ALOMY); test: as above; conditions: 480 h, evaluated 20 days after spraying, read-out: Pre-emergence activity ALOMY (100=total damage to plant; 0=no damage to plant); for pest or weed control at 250 g/ha: rate 250 g/ha
Protocol: as §1, §2

[6] = test system: Digitaria sanguinalis (DIGSA); test: as above; conditions: 480 h, evaluated 20 days after spraying, read-out: Pre-emergence activity DIGSA (100=total damage to plant; 0=no damage to plant); for pest or weed control at 250 g/ha: rate 250 g/ha
Protocol: as §1, §2

Avena fatua (AVEFA) [7] = test: Example A post-emergence herbicidal activity, glasshouse pot test; conditions: 360 h, rate 125 g/ha, evaluated 15 days after spraying, read-out: Post-emergence activity AVEFA (100=total damage to plant; 0=no damage to plant)
Protocol: as §1, §2

Setaria faberi (SETFA) [8] = test: as above; conditions: 360 h, rate 125 g/ha, evaluated 15 days after spraying, read-out: Post-emergence activity SETFA (100=total damage to plant; 0=no damage to plant)
Protocol: as §1, §2

[9] = test system: Echinochloa crus-galli (ECHCG); test: as above; conditions: 360 h, rate 125 g/ha, evaluated 15 days after spraying, read-out: Post-emergence activity ECHCG (100=total damage to plant; 0=no damage to plant)
Protocol: as §1, §2

Lolium perenne (LOLPE) [10] = test: as above; conditions: 360 h, rate 125 g/ha, evaluated 15 days after spraying, read-out: Post-emergence activity LOLPE (100=total damage to plant; 0=no damage to plant)
Protocol: as §1, §2

[11] = test system: Alopecurus myosuroides (ALOMY); test: as above; conditions: 360 h, rate 125 g/ha, evaluated 15 days after spraying, read-out: Post-emergence activity ALOMY (100=total damage to plant; 0=no damage to plant)
Protocol: as §1, §2

[12] = test system: Digitaria sanguinalis (DIGSA); test: as above; conditions: 360 h, rate 125 g/ha, evaluated 15 days after spraying, read-out: Post-emergence activity DIGSA (100=total damage to plant; 0=no damage to plant)
Protocol: as §1, §2

SMILES	pest or weed control at 250 g/ha (Avena fatua (AVEFA) [1]) [%]	pest or weed control at 250 g/ha (Setaria faberi (SETFA) [2]) [%]	pest or weed control at 250 g/ha [3] [%]	pest or weed control at 250 g/ha (Lolium perenne (LOLPE) [4]) [%]	pest or weed control at 250 g/ha [5] [%]	pest or weed control at 250 g/ha [6] [%]	pest or weed control at 125 g/ha (Avena fatua (AVEFA) [7]) [%]	pest or weed control at 125 g/ha (Setaria faberi (SETFA) [8]) [%]	pest or weed control at 125 g/ha [9] [%]	pest or weed control at 125 g/ha (Lolium perenne (LOLPE) [10]) [%]	pest or weed control at 125 g/ha [11] [%]	pest or weed control at 125 g/ha [12] [%]	pest or weed control at 500 g/ha (Avena fatua (AVEFA) [1]; rate 500 g/ha) [%]	pest or weed control at 500 g/ha (Setaria faberi (SETFA) [2]; rate 500 g/ha) [%]	pest or weed control at 500 g/ha ([3]; rate 500 g/ha) [%]	pest or weed control at 500 g/ha (Lolium perenne (LOLPE) [4]; rate 500 g/ha) [%]	pest or weed control at 500 g/ha ([5]; rate 500 g/ha) [%]	pest or weed control at 500 g/ha ([6]; rate 500 g/ha) [%]
Cc1ccc(-c2ccc(Cl)cc2C)cc1C1=C(O)C(C)(C)OC(C)(C)C1=O [Compound A-51]	0	10	50	40	0	50	20	40	80	0	10	60	–	–	–	–	–	–
Cc1ccc(-c2ccc(Cl)c(C(F)(F)F)c2)cc1C1=C(O)C(C)(C)OC(C)(C)C1=O [Compound A-52]	0	80	70	10	0	100	70	60	90	30	90	70	–	–	–	–	–	–
Cc1ccc(-c2ccc(C(F)(F)F)cc2)cc1C1=C(O)C(C)(C)OC(C)(C)C1=O [Compound A-10]	50	100	100	60	40	100	20	50	100	0	30	100	–	–	–	–	–	–
CCc1ccc(-c2ccc(Cl)c(C)c2)cc1C1=C(O)C(C)(C)OC(C)(C)C1=O [Compound A-44]	20	50	70	80	60	100	60	30	100	60	40	70	–	–	–	–	–	–
CCc1ccc(-c2ccc(Cl)cc2)cc1C1=C(O)C(C)(C)OC(C)(CC)C1=O (single isomer, unassigned) [Compound A-34]	50	100	100	100	60	100	20	90	100	80	70	90	–	–	–	–	–	–
Cc1ccc(-c2ccc(Cl)cc2)cc1C1=C(O)COC(C)(C)C1=O (single isomer, unassigned) [Compound A-1]	–	–	–	–	–	–	0	50	70	80	10	0	10	70	50	10	40	70
